Test results: patent US7045545B1, “Aminoalkylbenzofurans as serotonin (5-HT(2c)) agonists” (Eli Lilly and Company, priority 1999, dated 2006)

Row | Compound | melting point
1 | CC(N)Cc1c(F)ccc2ccoc12.O=C(O)C(=O)O (centres unmarked) | 200 to 202 °C
2 | CC(N)Cc1ccc(F)c2ccoc12.O=C(O)C(=O)O (centres unmarked) | 172 to 174 °C
3 | C[C@H](N)Cc1cc(F)cc2cc(Br)oc12.Cl | 202 to 205 °C
4 | Cc1coc2c(CC(C)N)cc(F)cc12.O=C(O)C(=O)O (centres unmarked) | 201 to 202 °C
5 | CC(N)Cc1cc([N+](=O)[O-])cc2ccoc12.Cl (centres unmarked) | 216 to 217 °C (dec.)
